Assay results as given in patent US10407398B2, “Inhibitors of Pseudomonas aeruginosa LecB” (priority 2015, dated 2019).

Key:
LecBPAO1 [1] = biological target: T1, LecBPAO1 (Pseudomonas aeruginosa, UniProt Q9HYN5); assay: biochemical; format: binding
T1 construct: made in house

LecBPA14 [2] = biological target: T2, LecBPA14 (Pseudomonas aeruginosa, UniProt A0A0H2ZE85); assay: biochemical; format: binding, Pseudomonas aeruginosa UCBPP-PA14
Procedure: The measured intensities were reduced by buffer values and fluorescence polarization was calculated. The data were analyzed using BMG Labtech MARS software and/or with Graphpad Prism and fitted according to the four parameter variable slope model. […] A minimum of three independent measurements of triplicates each was performed for every ligand.

LecBPA14 [3] = biological target: T2, LecBPA14; assay: biochemical; format: binding, Pseudomonas aeruginosa UCBPP-PA14; settings: for N: ITC binding stoichiometry, one site binding model; for N / ΔG / ΔH / −TΔS: LecBPA14; for ΔG / ΔH / −TΔS: ITC, 25° C.
Procedure: (§1) The temperature of the sample cell was 25° C. The titration was performed with a solution of ligands in the same buffer.

LecBPAO1 [4] = biological target: T1, LecBPAO1; assay: Microcalorimetric assay (ITC) for direct binding; settings: for N: ITC binding stoichiometry, one site binding model; for N / ΔH / −TΔS / ΔG: LecBPAO1; for ΔH / −TΔS / ΔG: ITC, 25° C.
Procedure: as §1

LecB = LecB (Pseudomonas aeruginosa, UniProt Q9HYN5); settings: background art; cited from earlier work
LecB, sequence (Q9HYN5 entry or part of it): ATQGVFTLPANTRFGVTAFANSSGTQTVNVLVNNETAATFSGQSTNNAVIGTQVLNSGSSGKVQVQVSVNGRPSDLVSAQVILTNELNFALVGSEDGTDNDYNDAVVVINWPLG

T1 sequence (Q9HYN5 entry or part of it): as above
T2 sequence (A0A0H2ZE85 entry or part of it): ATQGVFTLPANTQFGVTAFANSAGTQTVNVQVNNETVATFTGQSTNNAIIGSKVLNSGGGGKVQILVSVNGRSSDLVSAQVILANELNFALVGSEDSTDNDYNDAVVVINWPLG

## CC1O[C@H](CNS(=O)(=O)c2ccsc2)C(O)C(O)[C@@H]1O (stereo partly shown)
LecBPAO1 [1]
  IC50: 1850 ± 130 nM
LecBPA14 [2]
  IC50: 640 ± 270 nM

## Cc1ccc(S(=O)(=O)NC[C@H]2OC(C)[C@@H](O)C(O)C2O)s1 (stereo partly shown)
LecBPAO1 [1]
  IC50: 3490 ± 210 nM
LecBPA14 [2]
  IC50: 650 ± 350 nM

## CC1O[C@H](CNS(=O)(=O)c2ccc(Br)s2)C(O)C(O)[C@@H]1O (stereo partly shown)
LecBPAO1 [1]
  IC50: 3200 ± 370 nM
LecBPA14 [2]
  IC50: 620 ± 390 nM

## CC1O[C@H](CNS(=O)(=O)c2ccco2)C(O)C(O)[C@@H]1O (stereo partly shown)
LecBPAO1 [1]
  IC50: 3480 ± 750 nM
LecBPA14 [2]
  IC50: 480 ± 10 nM

## Cc1cc(S(=O)(=O)NC[C@H]2OC(C)[C@@H](O)C(O)C2O)c(C(F)(F)F)o1 (stereo partly shown)
LecBPAO1 [1]
  IC50: 3880 ± 700 nM
LecBPA14 [2]
  IC50: 490 ± 110 nM

## CC1O[C@H](CNS(=O)(=O)c2cn(C)cn2)C(O)C(O)[C@@H]1O (stereo partly shown)
LecBPAO1 [1]
  IC50: 14200 ± 3570 nM
LecBPA14 [2]
  IC50: 1860 ± 230 nM

## CC1O[C@H](CNS(=O)(=O)c2ccn(C)n2)C(O)C(O)[C@@H]1O (stereo partly shown)
LecBPAO1 [1]
  IC50: 6790 ± 1810 nM
LecBPA14 [2]
  IC50: 700 ± 30 nM

## Cc1csc(S(=O)(=O)NC[C@H]2OC(C)[C@@H](O)C(O)C2O)c1 (stereo partly shown)
LecBPAO1 [1]
  IC50: 2510 ± 540 nM
LecBPA14 [2]
  IC50: 310 ± 40 nM

## CCc1ccc(S(=O)(=O)NC[C@H]2OC(C)[C@@H](O)C(O)C2O)s1 (stereo partly shown)
LecBPAO1 [1]
  IC50: 4220 ± 1130 nM
LecBPA14 [2]
  IC50: 440 ± 40 nM

## CC1O[C@H](CNC(=O)c2ccccc2)C(O)C(O)[C@@H]1O (stereo partly shown)
LecBPAO1 [1]
  IC50: 8730 ± 600 nM

## CC1O[C@H](CNC(=O)c2cc3ccccc3o2)C(O)C(O)[C@@H]1O (stereo partly shown)
LecBPAO1 [1]
  IC50: 10200 ± 860 nM
LecBPA14 [2]
  IC50: 2560 ± 330 nM

## CC1O[C@H](CNS(=O)(=O)c2cccs2)C(O)C(O)[C@@H]1O (stereo partly shown)
LecBPA14 [3]
  N: 0.87 ± 0.08
  ΔG: -8.91 ± 0.0693 kcal/mol
  ΔH: -12 ± 0.617 kcal/mol
  −TΔS: 3.04 ± 0.645 kcal/mol
LecBPAO1 [4]
  N: 0.92 ± 0.05
  ΔH: -11.5 ± 0.0956 kcal/mol
  −TΔS: 3.2 ± 0.0335 kcal/mol

## Cc1cc(S(=O)(=O)NC[C@H]2OC(C)[C@@H](O)C(O)C2O)c(C)s1 (stereo partly shown)
LecBPA14 [3]
  N: 0.98 ± 0.06
  ΔH: -9.66 ± 0.265 kcal/mol
  −TΔS: 0.786 ± 0.402 kcal/mol
LecBPAO1 [4]
  N: 0.98 ± 0.03
  ΔH: -11.3 ± 0.287 kcal/mol
  −TΔS: 3.23 ± 0.33 kcal/mol

## CC1OCC(O)C(O)(CN)[C@@H]1O (stereo partly drawn) [1-deoxy-3(S)—C-(aminomethyl)-L-fucose]
LecBPAO1 [1]
  IC50: > 600000 nM
LecBPA14 [2]
  IC50: > 300000 nM

## CCC1(O)C(O)COC(C)[C@H]1O (stereo partly drawn) [1-deoxy-3(S)—C-(ethyl)-L-fucose]
LecBPAO1 [1]
  IC50: 471000 ± 104000 nM
LecBPA14 [2]
  IC50: 41500 ± 9940 nM

## CC(C)C(=O)NCC1(O)C(O)COC(C)[C@H]1O (stereo partly drawn) [1-deoxy-3(S)—C-(isobutyrylamidomethyl)-L-fucose]
LecBPAO1 [1]
  IC50: 348000 ± 65000 nM
LecBPA14 [2]
  IC50: 62600 ± 12400 nM

## CC1OCC(O)C(O)(CNS(=O)(=O)C(C)C)[C@@H]1O (stereo partly drawn) [1-deoxy-3(S)—C-(isopropylsulfonamidomethyl)-L-fucose]
LecBPAO1 [1]
  IC50: > 600000 nM
LecBPA14 [2]
  IC50: 286000 ± 77000 nM

## CC1OCC(O)C(C)(O)[C@@H]1O (stereo partly drawn) [1-deoxy-3(S)—C-(methyl)-L-fucose]
LecBPAO1 [1]
  IC50: 49600 ± 7800 nM
LecBPA14 [2]
  IC50: 6540 ± 1340 nM

## CC1OCC(O)C(O)(C(F)(F)F)[C@@H]1O (stereo partly drawn) [1-deoxy-3(S)—C-(trifluoromethyl)-L-fucose]
LecBPAO1 [1]
  IC50: > 600000 nM
LecBPA14 [2]
  IC50: > 300000 nM

## CC(=O)NCC[C@@]1(O)C(C)OCC(O)C1O (stereo partly drawn) [1-deoxy-4(R)—C-(ethylacetamide) L-fucose]
LecBPAO1 [1]
  IC50: 520 ± 30 nM
LecBPA14 [2]
  IC50: 180 ± 20 nM

## CC1OCC(O)C(O)[C@@]1(O)CCNS(C)(=O)=O (stereo partly drawn) [1-deoxy-4(R)—C-(ethylmethylsulfonamide) L-fucose]
LecBPAO1 [1]
  IC50: 440 ± 70 nM
LecBPA14 [2]
  IC50: 150 ± 20 nM

## CC1OCC(O)C(O)[C@@]1(O)Cc1ccccc1 (stereo partly drawn) [1-deoxy-4(S)—C-(benzyl) L-fucose]
LecBPAO1 [1]
  IC50: 2610 ± 20 nM
LecBPA14 [2]
  IC50: 620 ± 80 nM

## CC1OCC(O)C(O)[C@@]1(O)CC#N (stereo partly drawn) [1-deoxy-4(S)—C-(cyanomethyl) L-fucose]
LecBPAO1 [1]
  IC50: 1690 ± 150 nM
LecBPA14 [2]
  IC50: 580 ± 110 nM

## CC1OCC(O)C(O)[C@@]1(O)C1CCCCC1 (stereo partly drawn) [1-deoxy-4(S)—C-(cyclohexyl) L-fucose]
LecBPAO1 [1]
  IC50: 2590 ± 90 nM
LecBPA14 [2]
  IC50: 750 ± 130 nM

## CCCCCC[C@@]1(O)C(C)OCC(O)C1O (stereo partly drawn) [1-deoxy-4(S)—C-(hexyl) L-fucose]
LecBPAO1 [1]
  IC50: 610 ± 90 nM
LecBPA14 [2]
  IC50: 330 ± 160 nM

## CC(C)CC[C@@]1(O)C(C)OCC(O)C1O (stereo partly drawn) [1-deoxy-4(S)—C-(isopentyl) L-fucose]
LecBPAO1 [1]
  IC50: 780 ± 90 nM
LecBPA14 [2]
  IC50: 450 ± 120 nM

## CC1OCC(O)C(O)[C@]1(C)O (stereo partly drawn) [1-deoxy-4(S)—C-(methyl) L-fucose]
LecBPAO1 [1]
  IC50: 460 ± 70 nM
LecBPA14 [2]
  IC50: 170 ± 30 nM

## CC1OCC(O)C(O)[C@@]1(O)c1ccccc1 (stereo partly drawn) [1-deoxy-4(S)—C-(phenyl) L-fucose]
LecBPAO1 [1]
  IC50: 4970 ± 360 nM
LecBPA14 [2]
  IC50: 1480 ± 80 nM

## CCC[C@@]1(O)C(C)OCC(O)C1O (stereo partly drawn) [1-deoxy-4(S)—C-(propyl) L-fucose]
LecBPAO1 [1]
  IC50: 660 ± 90 nM
LecBPA14 [2]
  IC50: 230 ± 50 nM

## CC(=O)N[C@H]1C(O)O[C@H](CO)[C@@H](O[C@@H]2O[C@@H](C)[C@@H](O)[C@@H](O)[C@@H]2O)[C@@H]1O[C@@H]1O[C@H](CO)[C@H](O)[C@H](O)[C@H]1O (stereo partly drawn) [Lewis^a trisaccharide, α-Fuc1-4((βGal1-3)-GlcNAc]
LecB
  Kd: 210 nM

## CC1OCC(O)C(O)[C@@H]1O (stereo partly drawn) [drawing 74, 1-deoxy-L-fucose, reference compound]
LecBPAO1 [1]
  IC50: 1550 ± 500 nM
LecBPA14 [2]
  IC50: 600 ± 140 nM

## CC[C@@]1(O)C(C)OCC(O)C1O (stereo partly drawn) [drawing 82, 1-deoxy-4(S)—C-(ethyl) L-fucose]
LecBPAO1 [1]
  IC50: 390 ± 60 nM
LecBPA14 [2]
  IC50: 140 ± 30 nM

## CCCC[C@@]1(O)C(C)OCC(O)C1O (stereo partly drawn) [drawing 84, 1-deoxy-4(S)—C-(butyl) L-fucose]
LecBPAO1 [1]
  IC50: 650 ± 10 nM
LecBPA14 [2]
  IC50: 230 ± 30 nM

## Cc1cc(C)c(S(=O)(=O)NC[C@H]2OC(C)[C@@H](O)C(O)C2O)c(C)c1 (stereo partly shown) [drawing 93]
LecBPAO1 [1]
  IC50: 980 ± 60 nM
LecBPA14 [2]
  IC50: 420 ± 200 nM

## CC1O[C@H](CNC(=O)/C=C/c2ccccc2)C(O)C(O)[C@@H]1O (stereo partly shown) [drawing 111]
LecBPAO1 [1]
  IC50: 4210 ± 940 nM
LecBPA14 [2]
  IC50: 2490 ± 200 nM

## CC1OCC(O)C(O)[C@@H]1O (stereo partly drawn) [drawing 115, 1-deoxy-L-fucose, reference compound]
LecBPA14 [3]
  Kd: 453 ± 120 nM
  N: 0.94 ± 0.04
  ΔG: -8.68 ± 0.153 kcal/mol
  ΔH: -7.58 ± 0.261 kcal/mol
  −TΔS: -1.1 ± 0.399 kcal/mol
LecBPAO1 [4]
  Kd: 773 ± 110 nM
  N: 1.07 ± 0.03
  ΔG: -8.34 ± 0.0837 kcal/mol
  ΔH: -8.68 ± 0.217 kcal/mol
  −TΔS: 0.327 ± 0.272 kcal/mol

## CC[C@@]1(O)C(C)OCC(O)C1O (stereo partly shown) [drawing 116]
LecBPA14 [3]
  Kd: 130 ± 49 nM
  N: 0.96 ± 0.04
  ΔG: -9.42 ± 0.208 kcal/mol
  ΔH: -10 ± 0.277 kcal/mol
  −TΔS: 0.619 ± 0.263 kcal/mol
LecBPAO1 [4]
  Kd: 201 ± 42 nM
  N: 1.03 ± 0.13
  ΔG: -9.13 ± 0.129 kcal/mol
  ΔH: -12.4 ± 1.09 kcal/mol
  −TΔS: 3.2 ± 1.12 kcal/mol

## CCCC[C@@]1(O)C(C)OCC(O)C1O (stereo partly shown) [drawing 117]
LecBPA14 [3]
  Kd: 246 ± 47 nM
  N: 1.03 ± 0.08
  ΔG: -9.01 ± 0.115 kcal/mol
  ΔH: -9.42 ± 0.0096 kcal/mol
  −TΔS: 0.394 ± 0.117 kcal/mol
LecBPAO1 [4]
  Kd: 401 ± 84 nM
  N: 1.02 ± 0.09
  ΔG: -8.75 ± 0.0956 kcal/mol
  ΔH: -11.3 ± 0.12 kcal/mol
  −TΔS: 2.51 ± 0.186 kcal/mol

## CC1O[C@H](CNC(=O)/C=C/c2ccccc2)C(O)C(O)[C@@H]1O (stereo partly shown) [drawing 118]
LecBPA14 [3]
  Kd: 2590 ± 390 nM
  N: 1.07 ± 0.05
  ΔG: -7.29 ± 0.523 kcal/mol
  ΔH: -7.5 ± 0.344 kcal/mol
  −TΔS: 0.21 ± 0.239 kcal/mol
LecBPAO1 [4]
  Kd: 3090 ± 840 nM
  N: 0.93 ± 0.01
  ΔG: -7.53 ± 0.165 kcal/mol
  ΔH: -7.86 ± 0.394 kcal/mol
  −TΔS: 0.327 ± 0.32 kcal/mol

## Cc1cc(C)c(S(=O)(=O)NC[C@H]2OC(C)[C@@H](O)C(O)C2O)c(C)c1 (stereo partly shown) [drawing 119]
LecBPA14 [3]
  Kd: 310 ± 50 nM
  N: 0.98 ± 0.05
  ΔG: -8.87 ± 0.105 kcal/mol
  ΔH: -9.03 ± 0.88 kcal/mol
  −TΔS: 0.155 ± 0.774 kcal/mol
LecBPAO1 [4]
  Kd: 1270 ± 120 nM
  N: 0.99 ± 0.04
  ΔG: -8.03 ± 0.0574 kcal/mol
  ΔH: -8.41 ± 0.0096 kcal/mol
  −TΔS: 0.363 ± 0.0502 kcal/mol
